Legend:
Type in all cases: functional
[1] = system: NCI-H322M; assay: Cytotoxicity against Homo sapiens (human) NCI-H322M cells after 48 hr by sulforhodamine B assay; conditions: for CC50: read-out: LC50 (the source's name)
[2] = system: MDA-MB-435; assay: Cytotoxicity against Homo sapiens (human) MDA-MB-435 cells after 48 hr by sulforhodamine B assay; conditions: MDA-MB-435, 48 h
[3] = system: M14; assay: Cytotoxicity against Homo sapiens (human) M14 cells after 48 hr by sulforhodamine B assay; conditions: M14, 48 h
[4] = system: EKVX; assay: Cytotoxicity against Homo sapiens (human) EKVX cells after 48 hr by sulforhodamine B assay; conditions: for CC50: read-out: LC50 (the source's name)
[5] = system: SK-MEL-28; assay: Cytotoxicity against Homo sapiens (human) SK-MEL-28 cells after 48 hr by sulforhodamine B assay; conditions: SK-MEL-28, 48 h
[6] = system: SF-295; assay: Cytotoxicity against Homo sapiens (human) SF295 cells after 48 hr by sulforhodamine B assay; conditions: SF-295, 48 h; for CC50: read-out: LC50 (the source's name)
[7] = system: UO-31; assay: Cytotoxicity against Homo sapiens (human) UO31 cells after 48 hr by sulforhodamine B assay; conditions: UO-31, 48 h
[8] = system: OVCAR-3; assay: Cytotoxicity against Homo sapiens (human) OVCAR3 cells after 48 hr by sulforhodamine B assay; conditions: OVCAR-3, 48 h
[9] = system: U-251; assay: Cytotoxicity against Homo sapiens (human) U251 cells after 48 hr by sulforhodamine B assay; conditions: U-251, 48 h
[10] = system: ACHN; assay: Cytotoxicity against Homo sapiens (human) ACHN cells after 48 hr by sulforhodamine B assay; conditions: for CC50: read-out: LC50 (the source's name)
[11] = system: SNB-19; assay: Cytotoxicity against Homo sapiens (human) SNB19 cells after 48 hr by sulforhodamine B assay; conditions: SNB-19, 48 h
[12] = system: A498; assay: Cytotoxicity against Homo sapiens (human) A498 cells after 48 hr by sulforhodamine B assay; conditions: A498, 48 h
[13] = system: SK-MEL-2; assay: Cytotoxicity against Homo sapiens (human) SK-MEL-2 cells after 48 hr by sulforhodamine B assay; conditions: SK-MEL-2, 48 h
[14] = system: OVCAR-8; assay: Cytotoxicity against Homo sapiens (human) OVCAR8 cells after 48 hr by sulforhodamine B assay; conditions: OVCAR-8, 48 h
[15] = system: CAKI-1; assay: Cytotoxicity against Homo sapiens (human) Caki1 cells after 48 hr by sulforhodamine B assay; conditions: CAKI-1, 48 h; for CC50: read-out: LC50 (the source's name)
[16] = system: SW-620; assay: Cytotoxicity against Homo sapiens (human) SW620 cells after 48 hr by sulforhodamine B assay; conditions: SW-620, 48 h; for CC50: read-out: LC50 (the source's name)
[17] = system: DU-145; assay: Cytotoxicity against Homo sapiens (human) DU145 cells after 48 hr by sulforhodamine B assay; conditions: DU-145, 48 h
[18] = system: OVCAR-5; assay: Cytotoxicity against Homo sapiens (human) OVCAR5 cells after 48 hr by sulforhodamine B assay; conditions: OVCAR-5, 48 h; for CC50: read-out: LC50 (the source's name)
[19] = system: BT-549; assay: Cytotoxicity against Homo sapiens (human) BT549 cells after 48 hr by sulforhodamine B assay; conditions: BT-549, 48 h
[20] = system: SF-539; assay: Cytotoxicity against Homo sapiens (human) SF539 cells after 48 hr by sulforhodamine B assay; conditions: SF-539, 48 h
[21] = system: 786-0; assay: Cytotoxicity against Homo sapiens (human) 786-0 cells after 48 hr by sulforhodamine B assay; conditions: 786-0, 48 h
[22] = system: MCF7; assay: Cytotoxicity against Homo sapiens (human) MCF7 cells after 48 hr by sulforhodamine B assay; conditions: MCF7, 48 h
[23] = system: IGROV-1; assay: Cytotoxicity against Homo sapiens (human) IGROV1 cells after 48 hr by sulforhodamine B assay; conditions: IGROV-1, 48 h
[24] = system: HOP-92; assay: Cytotoxicity against Homo sapiens (human) HOP92 cells after 48 hr by sulforhodamine B assay; conditions: HOP-92, 48 h; for CC50: read-out: LC50 (the source's name)
[25] = system: SN12C; assay: Cytotoxicity against Homo sapiens (human) SN12C cells after 48 hr by sulforhodamine B assay
[26] = system: SK-MEL-5; assay: Cytotoxicity against Homo sapiens (human) SK-MEL-5 cells after 48 hr by sulforhodamine B assay; conditions: SK-MEL-5, 48 h
[27] = system: HT-29; assay: Cytotoxicity against Homo sapiens (human) HT-29 cells after 48 hr by sulforhodamine B assay; conditions: HT-29, 48 h; for CC50: read-out: LC50 (the source's name)
[28] = system: SF-268; assay: Cytotoxicity against Homo sapiens (human) SF268 cells assessed as cell growth at 10^-4 M after 48 hr by […] assay; conditions: SF-268, 48 h, read-out: Activity
[29] = system: NCI-H460; assay: Cytotoxicity against Homo sapiens (human) NCI-H460 cells after 48 hr by sulforhodamine B assay; conditions: NCI-H460, 48 h; for CC50: read-out: LC50 (the source's name)
[30] = system: PC-3; assay: Cytotoxicity against Homo sapiens (human) PC3 cells after 48 hr by sulforhodamine B assay; conditions: PC-3, 48 h
[31] = system: NCI-H226; assay: Cytotoxicity against Homo sapiens (human) NCI-H226 cells after 48 hr by sulforhodamine B assay; conditions: NCI-H226, 48 h; for CC50: read-out: LC50 (the source's name)
[32] = system: T47D; assay: Cytotoxicity against Homo sapiens (human) T47D cells after 48 hr by sulforhodamine B assay

`Nc1nc(Cl)c2ncn(Cc3ccc(CCl)cc3)c2n1` was tested, and the TGI [1] was 42.7 µM, the CC50 [1] was 87.1 µM and the LC50 [2] was > 100 µM. The TGI [2] was 42.7 µM, the LC50 [3] was > 100 µM and the TGI [3] was 38 µM. The TGI [4] was 7.24 µM, the CC50 [4] was 28.2 µM and the LC50 (concentration killing 50% of cells) [5] was > 100 µM. It also gave a TGI [5] of 44.7 µM, a TGI [6] of 27.5 µM and a CC50 [6] of 72.4 µM. For the same compound, the LC50 (concentration causing 50% net cell kill) [7] was 55 µM, the TGI [7] was 25.1 µM and the LC50 [8] was 22.9 µM. The TGI [8] was 5.5 µM, the LC50 (concentration killing 50% of cells) [9] was 44.7 µM and the TGI [9] was 12 µM. The TGI [10] was 25.1 µM, the CC50 [10] was 64.6 µM and the LC50 [11] was 46.8 µM. The TGI [11] was 19.9 µM, the LC50 (lethal concentration, 50% cell kill) [12] was > 100 µM and the TGI [12] was 85.1 µM. For the same compound, the LC50 (concentration killing 50% of cells) [13] was 74.1 µM, the TGI [13] was 28.8 µM and the LC50 (concentration killing 50% of cells) [14] was > 100 µM. It also gave a TGI [14] of 33.1 µM, a TGI [15] of 9.77 µM and a CC50 [15] of 34.7 µM. For the same compound, the TGI [16] was 13.8 µM, the CC50 [16] was 87.1 µM and the LC50 [17] was 43.6 µM. For the same compound, the TGI [17] was 19.5 µM, the TGI [18] was 14.8 µM and the CC50 [18] was > 100 µM. It also gave an LC50 (50% lethal concentration) [19] of 69.2 µM, a TGI [19] of 24.6 µM and an LC50 (concentration killing 50% of cells) [20] of 46.8 µM. The TGI [20] was 10 µM, the LC50 [21] was > 100 µM and the TGI [21] was 93.3 µM. The LC50 (concentration killing 50% of cells) [22] was > 100 µM, the TGI [22] was 17 µM and the LC50 [23] was 53.7 µM. For the same compound, the TGI [23] was 22.9 µM, the TGI [24] was > 100 µM and the CC50 [24] was > 100 µM. It also gave an LC50 (50% lethal concentration) [25] of 60.3 µM, a TGI [25] of 26.9 µM and an LC50 [26] of 63.1 µM. The TGI [26] was 31 µM, the TGI [27] was 27.5 µM and the CC50 [27] was 77.6 µM. It also gave a growth at 100 µM [28] of 90%, a TGI [29] of 9.95 µM and a CC50 [29] of 63.1 µM. For the same compound, the LC50 (concentration causing 50% cell kill) [30] was 70.8 µM, the TGI [30] was 25.1 µM and the TGI [31] was 37.1 µM. The CC50 [31] was > 100 µM, the LC50 [32] was > 100 µM and the TGI [32] was 39.8 µM.
`ClCc1ccccc1Cn1cnc2c(Cl)ncnc21` showed a GI50 [1] of 3.98 µM, a TGI [1] of 13.8 µM and a CC50 [1] of 43.6 µM. The GI50 [2] was 3.02 µM, the LC50 [2] was 36.3 µM and the TGI [2] was 9.55 µM. For the same compound, the GI50 [3] was 1.95 µM, the LC50 [3] was 7.24 µM and the TGI [3] was 3.71 µM. For the same compound, the GI50 [4] was 3.09 µM, the TGI [4] was 11 µM and the CC50 [4] was 37.1 µM. It also gave a GI50 [5] of 2.29 µM, an LC50 (concentration killing 50% of cells) [5] of 24.6 µM and a TGI [5] of 5.49 µM. For the same compound, the GI50 [6] was 10.5 µM, the TGI [6] was 23.4 µM and the CC50 [6] was 51.3 µM. The GI50 [7] was 2.63 µM, the LC50 (concentration causing 50% net cell kill) [7] was 61.7 µM and the TGI [7] was 10.5 µM. It also gave a GI50 [8] of 1.41 µM, an LC50 [8] of 8.91 µM and a TGI [8] of 3.54 µM. It also gave a GI50 [9] of 2.63 µM, an LC50 (concentration killing 50% of cells) [9] of 61.7 µM and a TGI [9] of 6.16 µM. It also gave a GI50 [10] of 2.7 µM, a TGI [10] of 6.16 µM and a CC50 [10] of 26.9 µM. The GI50 [11] was 5.37 µM, the LC50 [11] was > 100 µM and the TGI [11] was > 100 µM. For the same compound, the GI50 [12] was 17.4 µM, the LC50 (lethal concentration, 50% cell kill) [12] was 58.9 µM and the TGI [12] was 32.4 µM. For the same compound, the GI50 [13] was 2.75 µM, the LC50 (concentration killing 50% of cells) [13] was > 100 µM and the TGI [13] was 18.2 µM. It also gave a GI50 [14] of 2.24 µM, an LC50 (concentration killing 50% of cells) [14] of 20.4 µM and a TGI [14] of 5.24 µM. For the same compound, the GI50 [15] was 1.82 µM, the TGI [15] was 4.17 µM and the CC50 [15] was 9.33 µM. The GI50 [16] was 1.77 µM, the TGI [16] was 5.01 µM and the CC50 [16] was 26.3 µM. The GI50 [17] was 5.62 µM, the LC50 [17] was > 100 µM and the TGI [17] was 34.7 µM. For the same compound, the GI50 [18] was 2.45 µM, the TGI [18] was 6.6 µM and the CC50 [18] was 25.7 µM. The GI50 [19] was 1.99 µM, the LC50 (50% lethal concentration) [19] was 19.9 µM and the TGI [19] was 5.49 µM. The GI50 [20] was 10.7 µM, the LC50 (concentration killing 50% of cells) [20] was 55 µM and the TGI [20] was 24 µM. It also gave a GI50 [21] of 17.8 µM, an LC50 [21] of 83.2 µM and a TGI [21] of 38 µM. For the same compound, the GI50 [22] was 11 µM, the LC50 (concentration killing 50% of cells) [22] was > 100 µM and the TGI [22] was > 100 µM. It also gave a GI50 [23] of 3.16 µM, an LC50 [23] of 55 µM and a TGI [23] of 8.91 µM. The GI50 [24] was 1.48 µM, the TGI [24] was 4.26 µM and the CC50 [24] was 21.4 µM. For the same compound, the GI50 [25] was 3.38 µM, the LC50 (50% lethal concentration) [25] was 95.5 µM and the TGI [25] was 8.71 µM. For the same compound, the GI50 [26] was 1.41 µM, the LC50 [26] was 5.88 µM and the TGI [26] was 2.88 µM. For the same compound, the GI50 [27] was 3.54 µM, the TGI [27] was > 100 µM and the CC50 [27] was > 100 µM. The growth at 100 µM [28] was 0%, the GI50 [29] was 15.5 µM and the TGI [29] was 44.7 µM. For the same compound, the CC50 [29] was > 100 µM, the GI50 [30] was 3.02 µM and the LC50 (concentration causing 50% cell kill) [30] was 53.7 µM. It also gave a TGI [30] of 10.5 µM, a GI50 [31] of 4.57 µM and a TGI [31] of 12.6 µM. The CC50 [31] was 38.9 µM, the GI50 [32] was 17.8 µM and the LC50 [32] was > 100 µM. It also gave a TGI [32] of 61.7 µM.
